The target in the assay is T1, HCV NS5B polymerase (NS5BΔCT21) (Hepatitis C virus genotype 1b, UniProt Q9WMX2).
T1 construct: A soluble C-terminal 21-amino acid truncated NS5B enzyme form; polyhistidine (C); made in house; host or cells: Escherichia coli
The assay can be described thus: HCV NS5B Polymerase Inhibition Assay. Type of assay: biochemical, HCV-Con 1 isolate. An excerpt:
A chemically synthesized 75-mer version, designated DCoH75, whose sequence matches the 3′-end of D-RNA, and DCoH75ddC, where the 3′-terminal cytidine of DCoH75 is replaced by dideoxycytidine, were used for assaying the NS5B enzyme activity as described in Ferrari et al., 12th International Symposium on HCV and Related Viruses, P-306 (2005). The sequence of the template RNA was: 5′-UGUGCCGGUCUUUCUGAACGGGAUAUAAACCUGGCCAGCUUCAUCGAACAAGUUGCCGUGUCUAUGACAUAGAUC-3′ (SEQ ID NO: 1). A soluble C-terminal 21-amino acid truncated NS5B enzyme form (NS5BΔCT21, from HCV-Con 1 isolate, genotype 1b, Genbank accession number AJ238799) was produced and purified from Escherichia coli as C-terminal polyhistidine-tagged fusion protein as described in Ferrari et al., J. Virol. 73:1649-1654 (1999). A typical assay contained 20 mM Hepes pH 7.3, 10 mM MgCl2, 60 mM NaCl, 100 μg/ml BSA, 20 units/ml RNasin, 7.5 mM DTT, 0.1 μM ATP/GTP/UTP, 0.026 μM CTP, 0.25 mM GAU, 0.03 μM RNA template, 20 μCi/ml [^33P]-CTP, 2% DMSO, and 30 or 150 nM NS5B enzyme. Reactions were incubated at 22° C. for 2 hours, then stopped by adding 150 mM EDTA, washed in DE81 filter plate in 0.5M di-basic sodium phosphate buffer, pH 7.0, and counted using Packard TopCount after the addition of scintillation cocktail. Polynucleotide synthesis was monitored by the incorporation of radiolabeled CTP. The effect of the Compounds of Formula (I) on the polymerase activity was evaluated by adding various concentrations of a Compound of Formula (I), typically in 10 serial 2-fold dilutions, to the assay mixture. The starting concentrations ranged from 200 μM to 1 μM. An IC50 value for the inhibitor, defined as the compound concentration that provides 50% inhibition of polymerase activity, was determined by fitting the cpm data to the Hill equation Y=100/(1+10̂((LogIC50−X)*HillSlope)), where X is the logarithm of compound concentration, and Y is the % inhibition. Ferrari et al., 12th International Symposium on HCV and Related Viruses, P-306 (2005) described in detail this assay procedure. It should be noted that such an assay as described is exemplary and not intended to limit the scope of the invention. The skilled practitioner can appreciate that modifications including but not limited to RNA template, primer, nucleotides, NS5B polymerase form, buffer composition, can be made to develop similar assays that yield the same result for the efficacy of the compounds and compositions described in the invention.
NS5B polymerase inhibition data was calculated for the compounds of the present invention using this method and is set forth in the table below.
Take `Cc1c(F)cc(C(=O)Nc2ccc(C(C)C)cc2N2CCN(c3cnccn3)CC2)cc1F` [Compound 16]: the IC50 (commonly the concentration at which inhibition is half-maximal) came to 5.6 µM.
Under `Cc1oncc1C(=O)Nc1ccc(C(C)C)cc1N1CCN(c2cnccn2)CC1` [Compound 27] stands 13 µM; under `CC(C)c1ccc(NC(=O)c2cccnc2)c(N2CCN(c3nccs3)CC2)c1` [Compound 47], 2.5 µM; under `CC(C)c1ccc(NC(=O)c2ccnnc2)c(N2CCN(c3cnccn3)CC2)c1` [Compound 35], over 20 µM.
Compound `Cc1csc(N2CCN(c3cc(C(C)C)ccc3NC(=O)c3cccnc3)CC2)n1` [Compound 48] registered an IC50 of 15 µM.
With `Cc1ncccc1C(=O)Nc1ccc(C(C)C)cc1N1CCN(c2ncnc3[nH]ccc23)CC1` [Compound 60], half-maximal inhibition (IC50) was put at 0.032 µM.
Under `Cc1ncoc1C(=O)Nc1ccc(C(C)C)cc1N1CCN(c2cnccn2)CC1` [Compound 28] stands 14 µM; under `CC(C)c1ccc(NC(=O)c2cnc3[nH]ccc3c2)c(N2CCN(c3cnccn3)CC2)c1` [Compound 24], over 20 µM; under `CSCc1nccc(N2CCN(c3cc(C(C)C)ccc3NC(=O)c3cccnc3C)CC2)n1` [Compound 58], 0.027 µM.
Under `Cc1ncsc1C(=O)Nc1ccc(C(C)C)cc1N1CCN(c2cnccn2)CC1` [Compound 20] stands 0.58 µM; under `Cc1nocc1C(=O)Nc1ccc(C(C)C)cc1N1CCN(c2cnccn2)CC1` [Compound 38], 13 µM; under `CC(C)c1ccc(NC(=O)c2cccnc2)c(N2CCN(c3ncccn3)CC2)c1` [Compound 43], 2.3 µM.
Under `Cc1nccc(N2CCN(c3cc(C(C)C)ccc3NC(=O)c3cccnc3)CC2)n1` [Compound 42] stands 0.16 µM; under `Cc1nc(N(C)C)sc1C(=O)Nc1ccc(C(C)C)cc1N1CCN(c2cnccn2)CC1` [Compound 22], 10 µM; under `Cc1cncc(N2CCN(c3cc(C(C)C)ccc3NC(=O)c3cccnc3)CC2)n1` [Compound 40], 0.5 µM.
Compound `COc1ncccc1C(=O)Nc1ccc(C(C)C)cc1N1CCN(c2cnccn2)CC1` [Compound 11] displayed a half-maximal inhibitory concentration (IC50) of over 20 µM.
Compound `O=C(Nc1ccc(C(F)(F)F)cc1N1CCN(c2cnccn2)CC1)c1cccnc1` [Compound 68] returned a half-maximal inhibitory concentration (IC50) of over 20 µM.
Under `CC(C)c1ccc(NC(=O)c2ccnc(NC(=O)C(C)(C)C)c2)c(N2CCN(c3cnccn3)CC2)c1` [Compound 37] stands over 20 µM; under `CC(C)c1ccc(NC(=O)c2cccnc2O)c(N2CCN(c3cnccn3)CC2)c1` [Compound 10], 3 µM; under `Cc1cnc(C)c(N2CCN(c3cc(C(C)C)ccc3NC(=O)c3cccnc3)CC2)n1` [Compound 46], 140 µM.
The same measure for `Cc1ncccc1C(=O)Nc1ccc(C(C)C)cc1N1CCN(c2cnccn2)CC1` [Compound 2]: 0.52 µM; for `O=C(Nc1ccc(C2CC2)cc1N1CCN(c2cnccn2)CC1)c1cccnc1` [Compound 66]: 12 µM.
For `CC(C)c1ccc(NC(=O)c2cccnc2)c(N2CCN(S(C)(=O)=O)CC2)c1` [Compound 54], the half-maximal inhibitory concentration (IC50) is over 200 µM.
The same measure for `Cc1cnc(C(=O)Nc2ccc(C(C)C)cc2N2CCN(c3cnccn3)CC2)cn1` [Compound 36]: over 20 µM.
Turning to `Cc1c(F)cc(F)cc1C(=O)Nc1ccc(C(C)C)cc1N1CCN(c2cnccn2)CC1` [Compound 14], it took 0.54 µM to reach half-maximal inhibition (IC50).
The same measure for `CC(C)c1ccc(NC(=O)c2cccnc2)c(N2CCN(C(=O)OC(C)(C)C)CC2)c1` [Compound 53]: over 200 µM; for `O=C(Nc1ccc(Br)cc1N1CCN(c2cnccn2)CC1)c1cccnc1` [Compound 65]: over 20 µM.
The same measure for `CC(C)c1ccc(NC(=O)c2cncnc2)c(N2CCN(c3cnccn3)CC2)c1` [Compound 34]: over 20 µM; for `CC(C)c1ccc(NC(=O)c2cnccc2C(F)(F)F)c(N2CCN(c3cnccn3)CC2)c1` [Compound 26]: over 20 µM; for `Cc1cncc(C(=O)Nc2ccc(C(C)C)cc2N2CCN(c3cnccn3)CC2)c1` [Compound 18]: 2.3 µM.
The same measure for `CC(C)c1ccc(NC(=O)c2cccnc2-c2ccccc2)c(N2CCN(c3cnccn3)CC2)c1` [Compound 5]: over 200 µM.
In the case of `Cc1ncccc1C(=O)Nc1ccc(C(C)C)cc1N1CCN(c2ncnc3ccsc23)CC1` [Compound 59], the half-maximal inhibitory concentration (IC50) is 0.014 µM.
The same measure for `CC(C)c1ccc(NC(=O)c2cccnc2)c(N2CCN(C(=O)Nc3ccccc3)CC2)c1` [Compound 52]: over 100 µM.
Under `O=C(Nc1ccc(I)cc1N1CCN(c2cnccn2)CC1)c1cccnc1` [Compound 70] stands 13 µM.
The same measure for `Cc1ncccc1C(=O)Nc1ccc(C(C)C)cc1N1CCN(c2cncc(-c3ccccc3)n2)CC1` [Compound 62]: 17 µM.
With `CC(C)c1ccc(NC(=O)C2CCCNC2)c(N2CCN(c3cnccn3)CC2)c1` (stereo not drawn) [Compound 32], the half-inhibitory concentration (IC50) was over 200 µM.
As for `Cc1ccc(C(=O)Nc2ccc(C(C)C)cc2N2CCN(c3cnccn3)CC2)cn1` [Compound 17], the IC50 is 14 µM.
On to `CC(C)c1ccc(NC(=O)c2ccccn2)c(N2CCN(c3cnccn3)CC2)c1` [Compound 33], for which the IC50 is over 20 µM.
In turn, `CC(C)(C)c1ccc(NC(=O)c2cccnc2)c(N2CCN(c3cnccn3)CC2)c1` [Compound 63] displayed an IC50 of 3 µM.
`Cc1cnc(N2CCN(c3cc(C(C)C)ccc3NC(=O)c3cccnc3)CC2)s1` [Compound 49] had an IC50 of 3.9 µM.
Under `C=C(C)c1ccc(NC(=O)c2cccnc2)c(N2CCN(c3cnccn3)CC2)c1` [Compound 64] stands 7 µM; under `CC(C)c1ccc(NC(=O)c2cccnc2C2CC2)c(N2CCN(c3cnccn3)CC2)c1` [Compound 3], 2 µM.
Consider `CC(C)c1ccc(NC(=O)c2cccnc2)c(N2CCN(c3cnccn3)CC2)c1` [Compound 1], for which the IC50 was found to be 3 µM. Against the preceding compound, the IC50 is about 1.5-fold higher.
The same measure for `CC(C)c1ccc(NC(=O)c2ccc(C(F)(F)F)nc2)c(N2CCN(c3cnccn3)CC2)c1` [Compound 25]: 2.3 µM; for `Cc1c(F)ccc(F)c1C(=O)Nc1ccc(C(C)C)cc1N1CCN(c2cnccn2)CC1` [Compound 15]: 54 µM.
Under `Cc1nc(Br)sc1C(=O)Nc1ccc(C(C)C)cc1N1CCN(c2cnccn2)CC1` [Compound 21] stands 3 µM; under `CC(C)c1ccc(NC(=O)c2cccc(F)c2)c(N2CCN(c3cnccn3)CC2)c1` [Compound 12], 1 µM; under `C=C(C)c1ncccc1C(=O)Nc1ccc(C(C)C)cc1N1CCN(c2cnccn2)CC1` [Compound 4], over 200 µM.
Under `CC(C)c1ccc(NC(=O)c2cccnc2F)c(N2CCN(c3cnccn3)CC2)c1` [Compound 6] stands 2.2 µM.
The compound `Cc1n[nH]cc1C(=O)Nc1ccc(C(C)C)cc1N1CCN(c2cnccn2)CC1` [Compound 39] displayed a 50% inhibitory concentration (IC50) of over 200 µM.
Under `CC(C)c1ccc(NC(=O)c2cccnc2C(F)(F)F)c(N2CCN(c3cnccn3)CC2)c1` [Compound 7] stands 2.3 µM; under `CC(C)c1ccc(NC(=O)c2cnc3ccccc3c2)c(N2CCN(c3cnccn3)CC2)c1` [Compound 19], 6.7 µM; under `CCOC(=O)c1ccc(NC(=O)c2cccnc2)c(N2CCN(c3cnccn3)CC2)c1` [Compound 69], over 5 µM.
With `CC(C)c1ccc(NC(=O)c2cccnc2N)c(N2CCN(c3cnccn3)CC2)c1` [Compound 8], 1 µM corresponded to half-maximal inhibition (IC50). This lies in the single-digit micromolar range.
The same measure for `Cc1c(F)cccc1C(=O)Nc1ccc(C(C)C)cc1N1CCN(c2cnccn2)CC1` [Compound 13]: 4.1 µM.
The same measure for `CC(C)c1ccc(NC(=O)c2cccc(O)n2)c(N2CCN(c3cnccn3)CC2)c1` [Compound 9]: 46 µM; for `Cc1ncccc1C(=O)Nc1ccc(C(C)C)cc1N1CCN(c2cncc(C3CC3)n2)CC1` [Compound 61]: 1 µM.
The same measure for `CC(C)c1ccc(NC(=O)c2cccnc2)c(N2CCN(c3ccncn3)CC2)c1` [Compound 41]: 0.56 µM; for `CC(C)c1ccc(NC(=O)c2ccsc2)c(N2CCN(c3cnccn3)CC2)c1` [Compound 23]: 7 µM.
`O=C(Nc1ccc(-c2ccccc2)cc1N1CCN(c2cnccn2)CC1)c1cccnc1` [Compound 67]: the half-maximal inhibitory concentration (IC50) came out at 8 µM.

Source of the values: US20130164259A1, “1,4-S[…] DERIVATIVES AND METHODS OF USE THEREOF” (priority 2009, published 2013).
